Data reported in US20030022932A1, “Methods for regulating bacteria” (priority 2001, published 2003).

Tested on: Pseudomonas aeruginosa
Assay: agar bead model of rat chronic respiratory infection (quantitative lung pathology, histopathology)
Type: in vivo
Details: 7 days post-infection
Description: The following Examples illustrate the effect of normal flora and the presence of autoinducer-2 (AI-2) on Pseudomonas aeruginosa infection in the agar bead model of rat chronic respiratory infection. Groups of 15 rats (male Sprague-Dawley 180-200 grams) were inoculated intratracheally with 0.05 mL suspensions of bacteria embedded in agar beads. Seven days post-infection each group was treated as follows: (1) five rats—lungs removed for quantitative microbiology; (2) five rats—bronchoaveolar lavage (BAL) were obtained and analyzed for total cell counts, neutrophils, neutrophil elastase and AI-2 activity; and (3) five rats—lungs removed for histology (quantitative pathology). In the microphotographs shown in FIGS. 4-7, the dark areas indicate regions of consolidation, an indication of tissue damage. An α-hemolytic Streptococcus isolate (designated CFX5) from a cystic fibrosis patient was used to supply naturally synthesized AI-2 in vivo.
Rats inoculated with agar beads containing Pseudomonas aeruginosa alone yielded the quantitative pathology shown in FIG. 3 (PAO), and the histopathology shown in the microphotograph of FIG. 4
Rats inoculated with agar beads containing Pseudomonas aeruginosa alone and exposed to synthetic AI-2 yielded the quantitative pathology shown in FIG. 3 (PAO/AI-2), and the histopathology shown in FIG. 5.
Rats inoculated with agar beads containing Pseudomonas aeruginosa +α-hemolytic Streptococcus (CFX5) yielded the quantitative pathology shown in FIG. 3 (PAO/NF), and the histopathology shown in FIG. 6.
Rats inoculated with agar beads containing Pseudomonas aeruginosa +α-hemolytic Streptococcus (CFX5), treated daily for six days with aerosolized QXO18 (2-pentyl-2-cyclopenten-1-one), an AI-2 antagonist, yielded the quantitative pathology shown in FIG. 3 (PAO/NF/QXO18), and the histopathology shown in FIG. 7.

Compound	lung pathology caused by Pseudomonas aeruginosa (percent of lung tissue showing consolidation) (AI-2 supplied endogenously by co-infecting α-hemolytic Streptococcus isolate CFX5, PAO/NF)	lung pathology caused by Pseudomonas aeruginosa (percent of lung tissue showing consolidation) (rats inoculated with Pseudomonas aeruginosa alone, exposed to synthetic (exogenously supplied) AI-2, PAO/AI-2 vs PAO)	lung pathology caused by Pseudomonas aeruginosa (percent of lung tissue showing consolidation) (Pseudomonas aeruginosa + α-hemolytic Streptococcus (CFX5), treated daily for six days with aerosolized compound, PAO/NF/QXO18 vs PAO/NF)
autoinducer-2 [AI-2]	increases the lung pathology even more	increases the lung pathology	
CCCCCC1=CCCC1=O [2-pentyl-2-cyclopenten-1-one]			greatly diminishes the increased lung pathology
